These results are taken from patent US20240197888A1, “SOS1 PROTEIN DEGRADERS, PHARMACEUTICAL COMPOSITIONS THEREOF, AND THEIR THERAPEUTIC APPLICATIONS” (BioTheryX, Inc., priority 2021, published 2024).

Format in all cases: cell-based
One experiment concerns H358 (G12C) cells. The experiment can be described thus: Cell viability assay (CELLTITER-GLO), H358 cells. The following applies: Homo sapiens, NCI-H358, 72 h, Inhibition of cancerous cells, 3 days incubation, luminescence. Summed up: (§1)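 Cells plated in medium with 2.5% FBS and exposed to compound (DMSO control) for 3 days at 37° C., 5% CO2. Viability read as luminescence after CellTiter-Glo addition and 10 min shaking; IC50 values derived.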
In general terms: In ATP-based viability assays light output follows the ATP content of the culture.

Another experiment relates to SW480 (G12V) cells. Nature of the experiment: Cell viability assay (CELLTITER-GLO), SW480 cells. To be noted: Homo sapiens, 72 h, Inhibition of cancerous cells, 3 days incubation, luminescence. The gist of the method: as §1
Another experiment deals with SW48 (wt) cells. Nature of the experiment: Cell viability assay (CELLTITER-GLO), SW48 cells. The following applies: Homo sapiens, 72 h, Inhibition of cancerous cells, 3 days incubation, luminescence. Summed up:
as §1

Another experiment addresses T1, SOS1 (Homo sapiens, UniProt Q07889).
T1 construct: Whole cell extracts were prepared using an immunoprecipitation (IP) lysis buffer; endogenous in cells; host or cells: MV-4-11
T1 sequence (Q07889 1-1333): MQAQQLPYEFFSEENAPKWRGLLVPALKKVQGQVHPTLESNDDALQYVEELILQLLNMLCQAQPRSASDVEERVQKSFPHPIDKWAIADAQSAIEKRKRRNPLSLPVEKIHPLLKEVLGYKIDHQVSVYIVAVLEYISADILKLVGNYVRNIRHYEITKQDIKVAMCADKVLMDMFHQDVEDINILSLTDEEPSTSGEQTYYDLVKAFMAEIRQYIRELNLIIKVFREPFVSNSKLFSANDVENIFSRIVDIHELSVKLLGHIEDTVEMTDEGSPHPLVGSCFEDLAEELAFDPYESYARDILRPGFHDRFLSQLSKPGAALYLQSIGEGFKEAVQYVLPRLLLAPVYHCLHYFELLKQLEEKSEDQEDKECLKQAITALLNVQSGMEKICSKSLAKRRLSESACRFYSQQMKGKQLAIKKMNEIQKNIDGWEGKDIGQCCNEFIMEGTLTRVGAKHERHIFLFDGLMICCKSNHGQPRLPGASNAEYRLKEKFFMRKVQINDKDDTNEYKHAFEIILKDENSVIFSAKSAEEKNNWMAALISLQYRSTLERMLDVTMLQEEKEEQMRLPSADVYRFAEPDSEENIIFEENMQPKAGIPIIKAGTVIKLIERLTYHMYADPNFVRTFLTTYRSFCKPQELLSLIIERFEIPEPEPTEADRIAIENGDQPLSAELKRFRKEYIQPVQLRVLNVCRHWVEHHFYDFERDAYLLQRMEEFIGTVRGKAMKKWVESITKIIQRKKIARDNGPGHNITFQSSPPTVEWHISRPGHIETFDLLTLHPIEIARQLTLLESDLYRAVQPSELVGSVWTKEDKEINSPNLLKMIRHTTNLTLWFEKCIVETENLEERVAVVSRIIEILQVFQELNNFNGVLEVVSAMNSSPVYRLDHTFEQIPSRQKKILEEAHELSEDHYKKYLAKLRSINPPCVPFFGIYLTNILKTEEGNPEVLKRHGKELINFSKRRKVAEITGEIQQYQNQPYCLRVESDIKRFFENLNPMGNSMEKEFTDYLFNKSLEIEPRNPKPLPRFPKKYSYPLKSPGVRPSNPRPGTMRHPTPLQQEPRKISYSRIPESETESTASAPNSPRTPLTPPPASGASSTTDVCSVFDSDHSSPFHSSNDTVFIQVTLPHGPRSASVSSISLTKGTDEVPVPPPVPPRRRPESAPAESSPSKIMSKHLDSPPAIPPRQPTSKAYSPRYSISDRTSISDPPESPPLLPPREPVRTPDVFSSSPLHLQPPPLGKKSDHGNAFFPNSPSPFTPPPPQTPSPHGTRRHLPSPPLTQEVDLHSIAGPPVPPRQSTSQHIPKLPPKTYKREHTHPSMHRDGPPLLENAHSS
Nature of the experiment: Protein degradation assay (western blot) in MV-4-11 cells. To be noted: 6 h; for Degradation 3 μM (SOS1 protein, % degradation relative to DMSO control): compound at 3 μM; for Degradation 10 μM (SOS1 protein, % degradation relative to DMSO control): compound at 10 μM. As for the experimental part: MV-4-11 cells were grown in RPMI 1640 media supplemented with 10% fetal bovine serum, streptomycin, and penicillin. The cells were plated in 24-well plates in the growth media. The cells were then treated with a compound at indicated concentrations for 6 h. Whole cell extracts were prepared using an immunoprecipitation (IP) lysis buffer. Briefly, the cells were washed once in PBS, and the cell pellets were resuspended in the IP lysis buffer and incubated for 15 min on ice. Cell debris was removed by centrifugation and the cleared whole cell lysates were transferred to new tubes for further analysis.
For a western blot analysis, the whole cell protein extracts were separated on 4-12% SDS-polyacrylamide gels, transferred to nitrocellulose, and probed with primary antibodies. The nitrocellulose was subsequently washed and probed with IRDYE® secondary antibodies. The signals were detected using an ODYSSEY® Imaging System. The antibodies used in the assay included anti-SOS1; anti-KRAS; β-actin mouse monoclonal antibody; IRDYE® 680RD goat anti-rabbit antibody; and IRDYE® 800CW goat anti-mouse antibody.
[…] The % degradation values relative to the DMSO control are reported as “A,” “B,” “C,” or “D;” where “A” represents a percentage degradation value of no less than 50%; “B” represents a percentage degradation value of less than 50% and no less than 25%; “C” represents a percentage degradation value of less than 25% and no less than 10%; and “D” represents a percentage degradation value of less than 10%.
On the technique in general: A western blot detects proteins with antibodies after separation by electrophoresis.

The subject of a further experiment is Lovo (G13D) cells. The experiment can be described thus: Cell viability assay (CELLTITER-GLO), Lovo cells. To be noted: Homo sapiens, 72 h, Inhibition of cancerous cells, 3 days incubation, luminescence. Summed up:
as §1

For `COc1cc2c(N[C@H](C)c3cccc(Br)c3)nc(C)nc2cc1OCCCCCCCN1CCCCC1` [Compound A1, (R)—N-(1-(3-bromophenyl)ethyl)-6-methoxy-2-methyl-7-((7-(piperidin-1-yl)heptyl)oxy)quinazolin-4-amine], the IC50 was 1.1 µM in the experiment on H358 (G12C) cells, 0.52 µM with SW480 (G12V) cells, 0.68 µM with SW48 (wt) cells and 0.63 µM with Lovo (G13D) cells. The “Degradation 3 μM (SOS1 protein, % degradation relative to DMSO control)” value at SOS1 is “B (a percentage degradation value of less than 50% and no less than 25%)”. In addition, on SOS1, the “Degradation 10 μM (SOS1 protein, % degradation relative to DMSO control)” value is “A (a percentage degradation value of no less than 50%)”.
Regarding `CNCc1ccccc1-c1csc([C@@H](C)Nc2nc(CCCCCCCCN3CCCCC3)nc3cc(OC)c(OC)cc23)c1` [Compound C1, (R)-6,7-Dimethoxy-N-(1-(4-(2-((methylamino)methyl)phenyl)thiophen-2-yl)ethyl)-2-(8-(piperidin-1-yl)octyl)quinazolin-4-amine], on SOS1, the “Degradation 3 μM (SOS1 protein, % degradation relative to DMSO control)” value is “D (a percentage degradation value of less than 10%)” and the “Degradation 10 μM (SOS1 protein, % degradation relative to DMSO control)” value was “D (a percentage degradation value of less than 10%)”.

Usually IC50 stands for the concentration that gives 50% inhibition. A high value points to weaker potency.
